Assay [1] has as its target Gamma-aminobutyric acid receptor subunit alpha-1 (Rattus norvegicus, UniProt P62813).
The target in assay [2] is Gamma-aminobutyric acid receptor subunit alpha-2 (Rattus norvegicus, UniProt P23576).
The target of assay [3] is Gamma-aminobutyric acid receptor subunit alpha-3 (Rattus norvegicus, UniProt P20236).
For assay [4], the target named is Gamma-aminobutyric acid receptor subunit alpha-5 (Rattus norvegicus, UniProt P19969).

This is an account of results in BindingDB's records for PubMed 11454940 (Sanofi Synthelabo, 2001).

What is called Ki is the equilibrium dissociation constant of an inhibitor or competing ligand from its target. Low values mean higher affinity, high ones lower affinity.

Values joined by “and” are separate entries in the source; they are usually repeats but may differ in a detail not shown here. Equal values may be shown once.

Chain of Gamma-aminobutyric acid receptor subunit alpha-2 (P23576 whole entry): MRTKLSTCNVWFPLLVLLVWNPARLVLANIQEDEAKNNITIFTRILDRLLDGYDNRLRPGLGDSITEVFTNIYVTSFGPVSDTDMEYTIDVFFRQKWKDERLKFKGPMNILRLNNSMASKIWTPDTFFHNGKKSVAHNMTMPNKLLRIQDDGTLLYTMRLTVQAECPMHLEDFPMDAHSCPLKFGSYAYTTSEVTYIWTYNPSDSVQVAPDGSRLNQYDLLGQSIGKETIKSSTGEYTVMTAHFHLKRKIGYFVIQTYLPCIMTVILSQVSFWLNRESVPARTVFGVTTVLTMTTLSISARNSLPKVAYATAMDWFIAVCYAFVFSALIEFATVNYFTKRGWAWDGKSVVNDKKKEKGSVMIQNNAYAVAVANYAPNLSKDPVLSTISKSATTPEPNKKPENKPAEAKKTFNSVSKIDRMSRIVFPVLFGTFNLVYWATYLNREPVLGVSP
Chain of Gamma-aminobutyric acid receptor subunit alpha-5 (P19969 whole entry): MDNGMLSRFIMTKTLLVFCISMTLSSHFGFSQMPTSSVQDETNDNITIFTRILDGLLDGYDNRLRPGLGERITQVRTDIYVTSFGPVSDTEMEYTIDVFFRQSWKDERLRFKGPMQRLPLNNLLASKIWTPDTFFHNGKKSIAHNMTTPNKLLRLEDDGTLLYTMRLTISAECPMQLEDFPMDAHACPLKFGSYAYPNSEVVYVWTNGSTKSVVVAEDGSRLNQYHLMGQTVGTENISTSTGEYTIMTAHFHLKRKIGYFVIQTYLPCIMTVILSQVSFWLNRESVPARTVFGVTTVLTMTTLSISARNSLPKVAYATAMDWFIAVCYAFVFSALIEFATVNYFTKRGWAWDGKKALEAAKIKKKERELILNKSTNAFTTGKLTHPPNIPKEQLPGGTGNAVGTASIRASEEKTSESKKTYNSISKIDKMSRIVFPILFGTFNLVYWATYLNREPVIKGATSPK
Chain of Gamma-aminobutyric acid receptor subunit alpha-1 (P62813 whole entry): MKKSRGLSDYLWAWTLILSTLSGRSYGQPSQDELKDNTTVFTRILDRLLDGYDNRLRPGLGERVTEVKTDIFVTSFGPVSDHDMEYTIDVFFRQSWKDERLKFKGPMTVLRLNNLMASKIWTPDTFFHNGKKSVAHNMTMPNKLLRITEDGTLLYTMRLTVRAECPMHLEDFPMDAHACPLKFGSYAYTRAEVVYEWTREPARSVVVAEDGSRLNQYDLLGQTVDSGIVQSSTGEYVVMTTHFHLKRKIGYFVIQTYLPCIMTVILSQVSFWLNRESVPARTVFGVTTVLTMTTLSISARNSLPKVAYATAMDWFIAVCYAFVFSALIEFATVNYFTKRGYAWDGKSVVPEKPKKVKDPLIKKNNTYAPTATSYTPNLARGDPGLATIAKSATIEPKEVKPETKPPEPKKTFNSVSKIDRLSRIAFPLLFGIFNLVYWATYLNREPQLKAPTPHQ
Chain of Gamma-aminobutyric acid receptor subunit alpha-3 (P20236 whole entry I342M/K409L): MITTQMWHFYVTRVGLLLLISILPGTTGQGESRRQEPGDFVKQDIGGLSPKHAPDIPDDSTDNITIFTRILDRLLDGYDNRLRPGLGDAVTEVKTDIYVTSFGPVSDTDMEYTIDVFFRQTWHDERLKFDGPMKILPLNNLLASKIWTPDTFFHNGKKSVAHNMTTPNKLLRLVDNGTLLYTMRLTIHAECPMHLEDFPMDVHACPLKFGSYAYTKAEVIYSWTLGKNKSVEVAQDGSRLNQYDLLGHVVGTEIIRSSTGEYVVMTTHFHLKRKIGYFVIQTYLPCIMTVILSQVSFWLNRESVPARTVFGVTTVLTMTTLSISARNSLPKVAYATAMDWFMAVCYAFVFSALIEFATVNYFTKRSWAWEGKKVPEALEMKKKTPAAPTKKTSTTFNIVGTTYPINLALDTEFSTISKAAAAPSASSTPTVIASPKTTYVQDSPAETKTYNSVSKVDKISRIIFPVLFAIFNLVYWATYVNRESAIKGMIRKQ

Consider `Cn1c2ccc(F)cc2c2c(C(=O)N3CCCC3)cn(-c3ccccc3)c(=O)c21` [6-FLUOR-2-FENYL-9-METHYL-4-(PYRROLIDINE-1-CARBONYL)-9H-PYRIDO[3,4B]INDOOL-1(2H)-ON], for which the Ki was 6.8 nM and 17 nM in assay [1]; 12.3 nM and 73 nM in assay [2]; 80.3 nM in assay [3]; 117 nM and 215 nM in assay [4].
